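Cultured in 96-well plates, cells were exposed to test compound for 48 hours across five concentrations. Abbreviation: GI50, concentration required for 50% inhibition of growth. TGI: total growth inhibition.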

Some test systems named below: DLD-1 colon; DMS 114 small cell lung; DMS 273 small cell lung; HOP-18 NSCLC; KM20L2 colon; LXFL 529 NSCLC; M19-MEL melanoma; SK-MEL-5 melanoma; SNB-78 CNS; XF 498 CNS; RXF-631 renal.
Common to all, as to assay: NCI-60 cell line screen, 48 h

As to `COc1cc(/C=C\c2ccc(SC)cc2)cc(OC)c1OC`, the TGI in the assay with DLD-1 colon is above 100 µM; with DMS 114 small cell lung, 0.268 µM; in the assay with DMS 273 small cell lung it was 1.95 µM; in the assay on HOP-18 NSCLC it was 11.6 µM; in the assay with KM20L2 colon it was 0.0448 µM; in the assay with LXFL 529 NSCLC, 5.38 µM. Moreover, the TGI was above 100 µM in the assay on M19-MEL melanoma, 2.72 µM in the assay on SK-MEL-5 melanoma, above 100 µM in the assay on SNB-78 CNS and 19.8 µM in the assay with XF 498 CNS.

On to `O=Cc1cc(O)c(O)c(O)c1-c1c(C=O)cc(O)c(O)c1O`, for which the TGI in the assay on DLD-1 colon, with DMS 114 small cell lung, with DMS 273 small cell lung, in the assay with HOP-18 NSCLC, with KM20L2 colon and with LXFL 529 NSCLC was above 100 µM in each case. Also, the TGI with M19-MEL melanoma, in the assay on SK-MEL-5 melanoma and in the assay with SNB-78 CNS was above 100 µM throughout.

In the case of `CC1OC(OP(=O)(OCc2ccccc2)OCc2ccccc2)C(OC(=O)c2ccccc2)C(OC(=O)c2ccccc2)C1I` (stereo not drawn), the TGI in the assay with DLD-1 colon, in the assay on DMS 273 small cell lung, in the assay on KM20L2 colon, with LXFL 529 NSCLC, with M19-MEL melanoma and in the assay on SK-MEL-5 melanoma was above 100 µM throughout. The same compound showed a TGI in the assay on XF 498 CNS above 100 µM.

Turning to `C[Si](C)(C)C#C[I+]c1ccccc1`, the TGI was 40.9 µM in the assay on DLD-1 colon; 39.7 µM in the assay on DMS 114 small cell lung; 44.5 µM with DMS 273 small cell lung; above 100 µM in the assay with HOP-18 NSCLC; above 100 µM in the assay on KM20L2 colon; 95.2 µM in the assay on LXFL 529 NSCLC. In addition, the TGI is 83.7 µM in the assay with M19-MEL melanoma; above 100 µM in the assay on RXF-631 renal; above 100 µM in the assay with SK-MEL-5 melanoma; above 100 µM with SNB-78 CNS; above 100 µM with XF 498 CNS.

Turning to `N#Cc1nn(-c2ccc(Cl)cc2)c(N)c2c(=N)n3nc(-c4ccccc4)cc3nc12`, the TGI in the assay with DLD-1 colon was above 64.2 µM; in the assay on DMS 273 small cell lung it was above 100 µM; in the assay with KM20L2 colon, above 100 µM; with LXFL 529 NSCLC it was above 54.4 µM; in the assay with SNB-78 CNS it was above 100 µM; in the assay on XF 498 CNS, above 100 µM. Further, the GI50 with SNB-78 CNS is above 100 µM.

Regarding `Cc1c(Cl)cccc1NC(=O)C(=O)C1C(=O)NC(=O)NC1=O`, the TGI in the assay with DLD-1 colon, in the assay with DMS 273 small cell lung, with HOP-18 NSCLC, in the assay on KM20L2 colon, in the assay on LXFL 529 NSCLC and in the assay with M19-MEL melanoma was above 100 µM each time. Further, the TGI with SK-MEL-5 melanoma, in the assay on SNB-78 CNS and in the assay with XF 498 CNS was above 100 µM in each case.

For the compound `CC(=O)OC(C)(C)C1CCC(C)(C(O)COc2ccc(CCNC(=O)c3ccccc3)cc2)O1` (stereo not drawn), the TGI in the assay with DLD-1 colon was above 100 µM; with DMS 114 small cell lung it was 62.2 µM; in the assay with DMS 273 small cell lung it was above 100 µM; in the assay with HOP-18 NSCLC it was above 100 µM; in the assay with KM20L2 colon it was above 100 µM; in the assay on LXFL 529 NSCLC, above 100 µM. The TGI with M19-MEL melanoma was above 100 µM; in the assay on SK-MEL-5 melanoma it was 29.4 µM; with SNB-78 CNS it was above 100 µM; in the assay with XF 498 CNS, 33.4 µM.

With `CC(=O)OC1COC(N2C(=O)C(=O)c3cc(Br)c([N+](=O)[O-])cc32)C(OC(C)=O)C1OC(C)=O` (stereo not drawn), the TGI is above 100 µM with DLD-1 colon; 65.8 µM in the assay on DMS 114 small cell lung; above 100 µM in the assay on DMS 273 small cell lung; above 100 µM with HOP-18 NSCLC; above 100 µM in the assay on KM20L2 colon; above 100 µM in the assay on LXFL 529 NSCLC. Moreover, the TGI with M19-MEL melanoma was 62.5 µM; with RXF-631 renal it was above 100 µM; with SK-MEL-5 melanoma it was above 100 µM; in the assay on SNB-78 CNS it was above 100 µM; with XF 498 CNS, above 100 µM.

Turning to `Cc1[nH]n(C(=O)c2ccccc2O)c(=O)c1/C=C1\C(=O)C=Cc2ccccc21`, the TGI in the assay on DMS 114 small cell lung is 0.801 µM; in the assay with KM20L2 colon, 75.6 µM; with LXFL 529 NSCLC, 42.4 µM; with SK-MEL-5 melanoma, 4.26 µM; with SNB-78 CNS, 98.8 µM; in the assay on XF 498 CNS it was 29 µM.

Turning to `C[C@H](NC(=O)OC1C2C=CC(O)C1CC2)c1ccccc1` (stereo partly drawn), the TGI in the assay on DLD-1 colon, in the assay with DMS 114 small cell lung, with DMS 273 small cell lung, in the assay on HOP-18 NSCLC, in the assay on KM20L2 colon and with LXFL 529 NSCLC was above 100 µM each time. Besides, the TGI in the assay with SK-MEL-5 melanoma, in the assay on SNB-78 CNS and in the assay with XF 498 CNS was above 100 µM each time.

Take `C=C1C(=O)OC2C(C)C3C=CC(=O)[C@@]3(C)C(OC(=O)/C(C)=C/C)C1[C@@H]2OC(C)=O` (stereo partly drawn): the TGI with DLD-1 colon is 1.79 µM; in the assay on DMS 114 small cell lung, 2.37 µM; in the assay on DMS 273 small cell lung it was 1.81 µM; in the assay on HOP-18 NSCLC it was 3.28 µM; in the assay with KM20L2 colon, 2.99 µM; with LXFL 529 NSCLC it was 1.16 µM. For the same compound, the TGI in the assay on M19-MEL melanoma came to 1.84 µM; with SK-MEL-5 melanoma it was 2.78 µM; in the assay with SNB-78 CNS it was 2.8 µM; in the assay with XF 498 CNS, 2.53 µM.

Consider `OC(Cn1cncn1)(Cn1cncn1)c1ccc(Cl)cc1Cl`, for which the TGI in the assay on DLD-1 colon, in the assay with DMS 114 small cell lung, in the assay on DMS 273 small cell lung, in the assay on HOP-18 NSCLC, in the assay on KM20L2 colon and with LXFL 529 NSCLC was above 100 µM throughout. Further, the TGI in the assay on M19-MEL melanoma, with SK-MEL-5 melanoma and in the assay with SNB-78 CNS was above 100 µM in each case.

The values above are taken from PubChem BioAssay (NCI).
